Broadly, the IC50 is the concentration that inhibits the measured activity by half. A low value points to inhibition by little substance.

Consider nine compounds from patent US11685738B2, “Fluorinated tetrahydronaphthyridinyl nonanoic acid derivatives and uses thereof” (OcuTerra Therapeutics, Inc., priority 2015, dated 2023).

Experiment [1] concerns the target αvβ8 (Homo sapiens (Human), UniProt P06756+P26012). In words: αVβ8–LAP-TGF β1 integrin binding assay (integrin-coupled beads, flow cytometry). Conditions: ligand LAP TGF-β1. The source says:
(§1) All αV Integrins are known to bind to proteins with a RGD motif. Two RGD ligands were used in this study: Vitronectin (VN) as a ligand for αVβ3 and αVβ5 (Wayner et al., J. Cell Biol., 113 (4), 919-929, 1991), and LAP TGF-β1 (LAP1) as a ligand for αVβ6 and αVβ8 (Rognoni et al., Nat. Med., 20(4): 350-359, 2014). CWHM12 was used as a positive control for αVβ6 and αVβ8 (Henderson et al., Nat. Med. 19(12), 10.1038/nm.3282 2013), and Cilengitide as a positive control for αVβ3 and αVβ5 (Kumar et al., J. Pharmacol. Exp. Ther., 283, 843-853, 1997).
(§2) The integrin coupled Dyna beads were allowed to interact with respective ligands. The integrin-ligand complex was detected with either Primary/Secondary Antibody conjugated with Fluorescein Isothiocyanate (FITC). For αVβ3 and αVβ5, Vitronectin was used as a ligand and a primary antibody conjugated with FITC (Anti-VN-FITC Ab) was used to detect the interaction. For αVβ6 and αVβ8, LAP-TGF (31 was used as ligand and a primary antibody against LAP1 (Anti-LAP1 Ab) and a secondary antibody conjugated with FITC were used to detect the αVβ6/αVβ8-LAP-TGF (31 complex. Fluorescence was measured by Flow Cytometry analysis.
(§3) 5 mg of Dyna beads were weighed in a low protein binding microfuge (Eppendorf) tube (1.5 mL volume). The beads were re-suspended in 1 mL of Sodium Phosphate Buffer and vortexed at high speed for 30 seconds. The tube was then placed in a tube roller and tilt rotated for 10 min. After tilt rotation, the tube was placed on the Magna Spin and the beads were allowed to settle. The supernatant was discarded and the beads were washed three times. The beads were then re-suspended in 100 μL of Sodium Phosphate Buffer and 20 μL of washed beads were distributed into 5 low protein binding Eppendorf tubes (1 mg of beads in each tube). The beads were used for coupling integrins.
(§4) 20 μL of (1 mg) of beads were mixed with 20 μL of integrins (20 μg) and 20 μL of 3 M Ammonium Sulfate solution (final concentration of ammonium sulfate was 1M) to achieve a Bead: Protein ratio of 5 mg:100 μg. The solution was mixed gently and placed in a tube roller and incubated at 37° C. for 16 hours.
(§5) αVβ6/αVβ8 coupled beads were treated with the ligand LAP TGF-β1 (LAP1) at room temperature for 3 hours. The complex (Integrin+Ligand) was then treated with primary Ab (Anti-LAP1 Ab) overnight at 4° C. The whole complex (Integrin+Ligand+Primary Ab) was treated with Secondary Ab conjugated with FITC and incubated for 2 hours. The complex was analyzed by either plate reader or Flow Cytometer.
(§6) 10 μL of αVβ6/αVβ8 coupled beads were taken for the experiment. The concentration of integrins was 10 nM. 10 μL of LAP1 was taken (10 nM for aVβ6 and 20 nM for aVβ8). Reaction between integrin coupled beads and LAP1 was considered as the full reaction, and reaction without LAP1 or a compound of the disclosure was considered as the blank reaction. The samples were incubated in low protein binding tubes at room temperature for 3 hours. The tubes were briefly spun and placed in a Magna spin. The supernatant was removed. The beads were washed with assay buffer twice to remove excess LAP1 and then re-suspended in […] assay buffer containing 1:200 anti-LAP1 Ab (primary Ab). The tubes were placed in a tube roller and incubated at 4° C. overnight. After a brief spin, the tubes were then placed in a Magna spin and the supernatant was removed. The beads were washed with assay buffer twice to remove excess primary Ab and then re-suspended in 150 μL of assay buffer containing 1:500 secondary Ab conjugated with FITC. The tubes were incubated at room temperature for 2 hours in a tube roller. After a brief spin, the tubes were placed in a Magna spin and the supernatant was removed. The beads were washed with assay buffer twice followed by PBS. The beads were then re-suspended in 300 μL of PBS and analyzed by a Flow Cytometer (BD FACSCalibur, Software—BDcell Quest Pro Version 6). […]

Experiment [2] concerns the target αvβ6 (Homo sapiens (Human), UniProt P06756+P18564). Description: αVβ6–LAP-TGF β1 integrin binding assay (integrin-coupled beads, flow cytometry). Conditions: for IC50: ligand LAP TGF-β1; for αvβ8/αvβ6: ratio of αvβ8 IC50 to αvβ6 IC50.
Source text: as §1, §2, §3, §4, §5, §6

For experiment [3], the system named is bleomycin induced lung stiffness. Description: Bleomycin induced mouse pulmonary fibrosis model (lung stiffness, pressure-volume curves). It is filed as in vivo, male C57BL/6 mice. Conditions: for reversal of bleomycin induced lung stiffness, compared to the vehicle control group: all doses tested (10, 30, 100 mg/kg PO, day 0-21); for reversal of lung stiffness compared to positive control pirfenidone 100 mg/kg BID: mid- and high-dose groups (30 and 100 mg/kg PO). As for the experimental part: Experimental animals are randomly and prospectively assigned to groups. On day 0 and prior to bleomycin induction, animals are administered the first dose of vehicle or a compound of the present disclosure. Following dosing, all animals are anesthetized. A small diameter cannula is inserted into the trachea and saline or bleomycin is slowly infused into the lungs. Group 1 serves as an untreated control group and receives saline only (no bleomycin) on day 0. The other groups receive bleomycin on day 0. Treatments with vehicle (e.g., methylcellulose), positive control (e.g., Pirfenidone), or a compound of the present disclosure are administered once or twice daily via oral gavage (PO). All animals are weighed and evaluated daily for respiratory distress.
Prior to sacrifice, animals are anesthetized and once the animal is determined to be non-responsive a shallow incision is made. The trachea is isolated and a transverse cut is made between tracheal rings approximately half-way through the trachea. A tracheotomy is performed by the insertion of a cannula through the incision secured with surgical suture to the trachea. Following cannulation, the adapter end of the cannula is attached to the mechanical ventilator. The animal is ventilated and following an acclimation period, lung volume is standardized and each animal undergoes a measure of total respiratory impedance.
Ninety-five male C57BL/6 mice were randomly and prospectively assigned to one group of fifteen animals and eight groups of ten animals each. On day 0 and at least one hour prior to bleomycin induction, animals were administered the first dose of vehicle or test-article (i.e., a compound of the present disclosure). At least one hour following dosing, all mice were anesthetized with isoflurane and placed on their backs lying on a table at approximately 60°. A small diameter cannula was inserted into the trachea, and saline or bleomycin was slowly infused into the lungs in a volume of 40 μL.
Group 1 served as an untreated control group and received saline only (no bleomycin) on day 0. Groups 2-9 received 2.25 U/kg of bleomycin on day 0. The animals were then released into a recovery cage and allowed to wake up. From day 0 through day 21, treatments were administered once or twice daily via oral gavage (PO). Vehicle treated animals (Group 2) received 0.4% methylcellulose. Remaining animals received either Pirfenidone at 100 mg/kg (Group 3), Compound A15s at 100 mg/kg (Group 4), 30 mg/kg (Group 5) or 10 mg/kg (Group 6), or Compound A21 at 100 mg/kg (Group 7), 30 mg/kg (Group 8) or 10 mg/kg (Group 9).
All animals were weighed and evaluated daily for respiratory distress (defined as an increase in respiratory rate and/or obvious respiratory effort). Animals with severe respiratory distress, or animals that lost greater than 30% of their total starting body weight, were euthanized within 2 hours of observation.
On Day 21, prior to sacrifice, mice were anesthetized with IP injection of ketamine/xylazine (100 mg/kg, 10 mg/kg). Once the animal was determined to be non-responsive a shallow 2 cm vertical incision was made starting from 1 cm below the chin. The trachea was isolated and a transverse cut was made between tracheal rings approximately half-way through the trachea. A tracheotomy was performed by the insertion of an 18 gauge polyethylene cannula through the incision secured with surgical suture to the trachea. Following cannulation, the adapter end of the cannula was attached to the flexiVent mechanical ventilator. The animal was ventilated at 10 ml/kg tidal volume (VT), 150 breaths per minute and 3 cm H2O positive end expiratory pressure (PEEP). Following a 2-minute acclimation period, lung volume was standardized with 1, 6-second deep inflation to a pressure of 30 cm H2O followed by 2 pressure-volume measurements up to 40 ml/kg. […]

αvβ8, sequence (P06756 31-992): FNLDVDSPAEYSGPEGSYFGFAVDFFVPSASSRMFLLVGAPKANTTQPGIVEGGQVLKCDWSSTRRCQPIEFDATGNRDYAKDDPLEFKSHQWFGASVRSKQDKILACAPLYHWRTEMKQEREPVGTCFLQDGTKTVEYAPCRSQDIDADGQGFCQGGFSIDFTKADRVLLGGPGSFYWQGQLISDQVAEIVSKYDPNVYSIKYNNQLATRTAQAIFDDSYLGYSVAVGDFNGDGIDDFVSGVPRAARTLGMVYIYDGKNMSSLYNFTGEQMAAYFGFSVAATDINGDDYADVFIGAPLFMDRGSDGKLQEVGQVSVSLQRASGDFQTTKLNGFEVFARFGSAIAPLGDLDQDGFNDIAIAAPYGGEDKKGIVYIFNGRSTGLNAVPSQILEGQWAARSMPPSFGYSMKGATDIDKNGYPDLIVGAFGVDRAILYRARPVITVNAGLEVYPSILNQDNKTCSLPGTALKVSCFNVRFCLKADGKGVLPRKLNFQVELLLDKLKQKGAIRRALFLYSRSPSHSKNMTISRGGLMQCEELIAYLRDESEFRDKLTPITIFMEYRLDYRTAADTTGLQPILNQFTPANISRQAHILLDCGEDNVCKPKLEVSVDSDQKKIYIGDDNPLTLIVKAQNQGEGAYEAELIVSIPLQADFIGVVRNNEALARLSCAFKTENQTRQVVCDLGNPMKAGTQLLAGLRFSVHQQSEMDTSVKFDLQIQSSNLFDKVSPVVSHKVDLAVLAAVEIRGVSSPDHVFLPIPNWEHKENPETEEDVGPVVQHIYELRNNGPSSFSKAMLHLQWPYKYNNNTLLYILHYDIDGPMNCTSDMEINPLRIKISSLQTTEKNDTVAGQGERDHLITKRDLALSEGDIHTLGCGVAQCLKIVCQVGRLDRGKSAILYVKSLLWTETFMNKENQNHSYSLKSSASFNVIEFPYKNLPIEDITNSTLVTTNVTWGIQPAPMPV
αvβ8, sequence (P26012 43-684): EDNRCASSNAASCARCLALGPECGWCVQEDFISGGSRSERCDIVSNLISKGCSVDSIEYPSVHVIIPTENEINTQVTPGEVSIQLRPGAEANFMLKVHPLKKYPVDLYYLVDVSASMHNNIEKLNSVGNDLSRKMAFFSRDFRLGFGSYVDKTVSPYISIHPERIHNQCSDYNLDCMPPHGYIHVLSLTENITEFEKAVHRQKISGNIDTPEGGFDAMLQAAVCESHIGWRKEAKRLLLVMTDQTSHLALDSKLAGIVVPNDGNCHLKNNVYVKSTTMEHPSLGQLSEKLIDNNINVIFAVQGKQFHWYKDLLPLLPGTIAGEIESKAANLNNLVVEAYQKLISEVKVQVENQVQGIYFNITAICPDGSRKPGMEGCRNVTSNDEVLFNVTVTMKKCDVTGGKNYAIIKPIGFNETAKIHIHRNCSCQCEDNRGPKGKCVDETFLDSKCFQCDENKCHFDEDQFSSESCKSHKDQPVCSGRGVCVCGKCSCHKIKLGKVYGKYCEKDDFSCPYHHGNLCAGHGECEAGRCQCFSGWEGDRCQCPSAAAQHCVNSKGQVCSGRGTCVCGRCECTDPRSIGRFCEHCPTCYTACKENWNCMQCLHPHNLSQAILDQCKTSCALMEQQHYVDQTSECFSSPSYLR
αvβ6, sequence (P06756 31-992): as the sequence (P06756 31-992) above
αvβ6, sequence (P18564 22-707): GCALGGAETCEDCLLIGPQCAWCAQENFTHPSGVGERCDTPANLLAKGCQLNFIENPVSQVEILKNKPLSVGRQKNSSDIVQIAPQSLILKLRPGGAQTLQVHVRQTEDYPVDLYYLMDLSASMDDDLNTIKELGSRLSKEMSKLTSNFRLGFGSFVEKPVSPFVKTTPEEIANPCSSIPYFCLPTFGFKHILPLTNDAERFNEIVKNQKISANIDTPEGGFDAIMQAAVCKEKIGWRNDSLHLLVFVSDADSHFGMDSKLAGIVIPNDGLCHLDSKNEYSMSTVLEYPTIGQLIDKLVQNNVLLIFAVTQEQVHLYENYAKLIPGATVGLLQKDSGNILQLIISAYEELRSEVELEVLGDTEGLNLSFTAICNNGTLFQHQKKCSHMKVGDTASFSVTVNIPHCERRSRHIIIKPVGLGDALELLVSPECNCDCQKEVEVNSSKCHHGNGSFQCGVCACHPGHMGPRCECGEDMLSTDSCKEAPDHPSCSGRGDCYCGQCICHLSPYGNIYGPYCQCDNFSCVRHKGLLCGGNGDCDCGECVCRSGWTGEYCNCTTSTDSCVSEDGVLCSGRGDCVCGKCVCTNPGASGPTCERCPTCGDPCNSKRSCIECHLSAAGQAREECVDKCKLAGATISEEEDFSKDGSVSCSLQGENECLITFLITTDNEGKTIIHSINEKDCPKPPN

For the compound `O=C(O)CC(CCCCCCc1ccc2c(n1)NCCC2)c1cccc(C(F)(F)F)c1` (single isomer, unassigned) [Compound A21-2], the IC50 in experiment [1] was 50.3 nM; in experiment [2], 4.6 nM. In experiment [2], the αvβ8/αvβ6 is recorded as 10.93.

On to `O=C(O)C[C@@H](c1ccc(OC(F)F)nc1)N1CCN(CCCc2ccc3c(n2)NCCC3)C1=O` [Compound A1, (S)-3-(6-(difluoromethoxy)pyridin-3-yl)-3-(2-oxo-3-(3-(5,6,7,8-tetrahydro-1,8-naphthyridin-2-yl)propyl)imidazolidin-1-yl)propanoic acid], for which, in experiment [1], the IC50 turned out to be 13.2 nM. In addition, in experiment [2], the 50% inhibitory concentration (IC50) worked out at 8.3 nM and the αvβ8/αvβ6 amounted to 1.59.

In the case of `O=C(O)CC(CCCCCCc1ccc2c(n1)NCCC2)c1cnc2cc(F)c(F)cc2c1` (stereo not shown) [Compound A6, 3-(6,7-difluoroquinolin-3-yl)-9-(5,6,7,8-tetrahydro-1,8-naphthyridin-2-yl)nonanoic acid], the IC50 is 24 nM in experiment [1] and 8.25 nM in experiment [2]. The αvβ8/αvβ6 in experiment [2] is given as 2.91.

In turn, `O=C(O)CC(CCCCCCc1ccc2c(n1)NCCC2)c1cnc2cc(C(F)(F)F)ccc2c1` (stereo not shown) [Compound A7, 9-(5,6,7,8-tetrahydro-1,8-naphthyridin-2-yl)-3-(7-(trifluoromethyl)quinolin-3-yl)nonanoic acid] showed an IC50 in experiment [1] of 80.6 nM. Further, in experiment [2], the IC50 turned out to be 11.6 nM and the αvβ8/αvβ6 stood at 6.93.

`O=C(O)C[C@@H](c1cccc(C(F)(F)F)c1)N1CCN(CCCc2ccc3c(n2)NCCC3)C1=O` [Compound A15s, (S)-3-(2-oxo-3-(3-(5,6,7,8-tetrahydro-1,8-naphthyridin-2-yl)propyl)imidazolidin-1-yl)-3-(3-(trifluoromethyl)phenyl)propanoic acid] displayed a half-inhibitory concentration (IC50) in experiment [1] of 5.92 nM. Besides, in experiment [2], the IC50 stood at 9.28 nM and the αvβ8/αvβ6 stood at 0.64. The “reversal of bleomycin induced lung stiffness, mid- and high-dose groups” value in experiment [3] (30 and 100 mg/kg PO, day 0-21) is reported as “significant reversal of bleomycin induced lung stiffness”. Besides, in experiment [3], the “reversal of bleomycin induced lung stiffness, compared to the vehicle control group” value is listed as “reversed bleomycin induced lung stiffness at all doses tested” and the “reversal of lung stiffness compared to positive control pirfenidone 100 mg/kg BID” value was “superior to the positive control pirfenidone”. Also, the “lung stiffness compared to saline treated animal group (no bleomycin)” value in experiment [3] (mid-dose group (30 mg/kg PO)) is on record as “indistinguishable from the saline treated animal group”.

`O=C(O)CC(CCCCCCc1ccc2c(n1)NCCC2)c1cccc(C(F)(F)F)c1` (stereo not shown) [Compound A21] returned an IC50 in experiment [1] of 88.2 nM. For the same compound, in experiment [2], the 50% inhibitory concentration (IC50) is 7.64 nM and the αvβ8/αvβ6 is recorded as 11.54. For the same compound, in experiment [3], the “reversal of bleomycin induced lung stiffness, compared to the vehicle control group” value is “reversed bleomycin induced lung stiffness at all doses tested” and the “reversal of lung stiffness compared to positive control pirfenidone 100 mg/kg BID” value was “similar, if not better, reversal of bleomycin induced lung stiffness”.

`O=C(O)CC(CCCCCCc1ccc2c(n1)NCCC2)c1cc(Cl)cc(C(F)(F)F)c1` (stereo not shown) [Compound A24, 3-(3-chloro-5-(trifluoromethyl)phenyl)-9-(5,6,7,8-tetrahydro-1,8-naphthyridin-2-yl)nonanoic acid] displayed an IC50 in experiment [1] of 35.4 nM. For the same compound, in experiment [2], the IC50 was determined as 17.5 nM and the αvβ8/αvβ6 amounted to 2.02.

For the compound `O=C(O)CC(CCCCCCc1ccc2c(n1)NCCC2)c1cc(C(F)(F)F)ccc1F` (stereo not shown) [Compound A28], the IC50 in experiment [1] stood at 34.4 nM. Moreover, in experiment [2], the IC50 is 16.9 nM and the αvβ8/αvβ6 is recorded as 2.04.

For the compound `COc1ccc([C@H](CC(=O)O)N2CCN(CCCc3ccc4c(n3)NCCC4)C2=O)cn1` [Compound A30s], in experiment [2], the αvβ8/αvβ6 is on record as 1.83.
